Results taken from ChEMBL document CHEMBL3853299 (Eur J Med Chem, 2016).

What was measured:
[1] = target: T1, Prothrombin (Homo sapiens, UniProt P00734); assay: Inhibition of human thrombin at 1 ug/ml pre-incubated for 10 mins before Ac-FVR-AMC substrate addition and measured after 10 mins by fluorescence based assay
[2] = species on record: Rattus norvegicus; assay: Anticoagulant activity in rat assessed as inhibition of arteriovenous thrombosis at 0.5 mg/ml after 15 mins relative to control; format: functional
[3] = target: T1, Prothrombin; assay: Inhibition of human thrombin pre-incubated for 10 mins before Ac-FVR-AMC substrate addition and measured after 10 mins by fluorescence based assay

Row | Compound | inhibition [1] | IC50 [3] | inhibition (INH) [2]
1 | CCn1c(CNc2ccc(C(=N)N)cc2)nc2cc(C(=O)N(CCC(=O)O)c3cccc(C)n3)ccc21 | > 90% | 0.96 nM | 85.35%
2 | CCn1c(CNc2ccc(C(=N)N)cc2)nc2cc(C(=O)N(CCC(=O)O)c3ccc(F)c(C)c3)ccc21 | > 90% | 6.27 nM | 
3 | CCn1c(CNc2ccc(C(=N)N)cc2)nc2cc(C(=O)N(CCC(=O)O)c3cccc(C)c3C)ccc21 | > 90% | 6.59 nM | 
4 | CCn1c(CNc2ccc(C(=N)N)cc2)nc2cc(C(=O)N(CCC(=O)O)c3c(C)cccc3C)ccc21 | > 90% | 3.1 nM | 
5 | Cn1c(CNc2ccc(C(=N)N)cc2)nc2cc(C(=O)N(CCC(=O)O)c3ccccn3)ccc21 [DABIGATRAN] |  |  | 85.07%
6 | CCn1c(CNc2ccc(C(=N)N)cc2)nc2cc(C(=O)N(CCC(=O)O)c3ccc(F)cc3F)ccc21 | > 90% | 4.23 nM | 
7 | CCn1c(CNc2ccc(C(=N)N)cc2)nc2cc(C(=O)N(CCC(=O)O)c3ccc(C)cc3)ccc21 | > 90% | 4.98 nM | 

Continued by falling IC50 [3], values first:

Row | inhibition [1] | IC50 [3] | Compound | inhibition (INH) [2]
8 | > 90% | 16.4 nM | CCn1c(CNc2ccc(C(=N)N)cc2)nc2cc(C(=O)N(CCC(=O)O)c3ccc(C)cc3C)ccc21 | 
9 | > 90% | 4.69 nM | CCn1c(CNc2ccc(C(=N)N)cc2)nc2cc(C(=O)N(CCC(=O)O)c3ccccc3)ccc21 | 
10 | > 90% | 3.11 nM | CCn1c(CNc2ccc(C(=N)N)cc2)nc2cc(C(=O)N(CCC(=O)O)c3ccccc3C)ccc21 | 77.93%
11 | > 90% | 2.13 nM | CCn1c(CNc2ccc(C(=N)N)cc2)nc2cc(C(=O)N(CCC(=O)O)c3cccc(C)c3)ccc21 | 
12 | > 90% | 1.62 nM | CCn1c(CNc2ccc(C(=N)N)cc2)nc2cc(C(=O)N(CCC(=O)O)c3cc(C)ccn3)ccc21 | 
